# Patent US9260404B1, “Preparation of ambrox from labdanes of Dysoxylum hongkongense, and the preparation of new diterpenoids from Dysoxylum hongkongense” (National Taiwan University, priority 2014, dated 2016)
# How the values were obtained:
# [1] = tested on: human laryngeal carcinoma Hep-2; experiment: Cytotoxic assay (MTT), Hep-2; assay type: cell-based; conditions: Hep-2, MTT assay
# Method: (§1) Cytotoxic Assay. Human hepatocellular carcinoma Hep-G2, human colon adenocarcinoma WiDr and human laryngeal carcinoma Hep-2 were used as the targets for research, and an antitumor drug, mitomycin C, was the control. The effective dosage (ED50, μg/mL) of the compounds on the cancer cell cytotoxicity was determined by the well-known cytotoxicity assay (3-(4,5-dimethylthiazol-2-yl)-2,5-diphenyltetrazolium bromide (MTT) assay) in the art.
# [2] = tested on: human hepatocellular carcinoma Hep-G2; experiment: Cytotoxic assay (MTT), Hep-G2; assay type: cell-based
# Method: as §1
# [3] = tested on: human colon adenocarcinoma WiDr; experiment: Cytotoxic assay (MTT), WiDr; assay type: cell-based
# Method: as §1
# HSV-1 (KOS strain) = experiment: Anti-HSV-1 plaque reduction assay in Vero cells; assay type: cell-based, Herpes Simplex Virus-1; conditions: for inhibition (in vitro inhibitory activity against the HSV-1 virus): at 10 μM, plaque formation in Vero cells; for inhibition at 10 µM: Human alphaherpesvirus 1, plaque formation in Vero cells, read-out: inhibition (in vitro inhibitory activity against the HSV-1 virus)
# Method: Anti Herpes Simplex Virus-1 (HSV-1) Assay, Cell Culture and Virus. Vero cells were cultured in minimal essential medium (MEM; GIBCO®, Grand Island, N.Y.) supplemented with 10% fetal calf serum (FCS; Hyclone™, Logan, Utah), 100 U/mL penicillin and 100 μg/mL streptomycin and incubated at 37° C. in a 5% CO2 incubator. To prepare a stock of HSV-1 (KOS strain, VR-1493, ATCC), Vero cells were infected with HSV-1 at a multiplicity of infection points on three plaque forming units (PFU)/cell and harvested at 24 hours postinfection and centrifuged at 1500×g (Centrifuge 5810 R, Eppendorf) at 4° C. for 20 minutes. The supernatant was collected and stored at −70° C. for use.
# Plaque Reduction Assay. The bioassay followed a procedure described previously (Kuo et al., Samarangenin B from Limonium sinense Suppresses Herpes Simplex Virus Type 1 Replication in Vero Cells by Regulation of Viral Macromolecular Synthesis. Antimicrob. Agents Chemother., 2002, 46(9): 2854-2864.). […] The viruses were adsorbed for 1 hour at 37° C. and 1% methylcellulose was added to each well. After 5 days, the virus plaques formed in Vero cells were counted by crystal violet staining. The activities of various compounds and acyclovir for inhibition of plaque formation were calculated.
# [4] = tested on: elastase release by human neutrophils; experiment: Elastase release by human neutrophils in response to FMLP/CB; assay type: cell-based; conditions: 10 μg/mL
# Method: (§2) Anti-inflammatory Assays, Inhibitory Effect on Superpxide Anion Generation and Elastase Release by Human Neutrophils. Neutrophils were obtained by means of dextran sedimentation and Ficoll centrifugation. Superoxide generation and elastase release were carried out according to a procedure described previously (Hwang et al., Inhibition of Superoxide Anion and Elastase Release in Human Neutrophils by 3′-Isopropoxychalcone via a cAMP-dependent Pathway. Br. J. Pharmacol., 2006, 148(1): 78-87.; and Liaw et al., Frajunolides E-K, Briarane Diterpenes from Junceella fragilis. J. Nat. Prod., 2008, 71(9): 1551-1556.). Superoxide anion production was assayed by monitoring the superoxide dismutase-inhibitable reduction of ferricytochrome c. Elastase release experiments were performed using MeO-Suc-Ala-Ala-Pro-Val p-nitroanilide as the elastase substrate.
# [5] = tested on: superoxide anion generation by human neutrophils; experiment: Superoxide anion generation by human neutrophils in response to FMLP/CB; assay type: cell-based; conditions: 10 μg/mL
# Method: as §2
molecule,measurement,setting,value
"C=C[C@@]1(C)O[C@]2(C)CC[C@H]3C(C)(C)C(=O)CC[C@]3(C)[C@H]2C[C@H]1O [Compound 8, Dysongensin B]",ED50 cytotoxic activity against Hep-2 cells,[1],16.07 ± 0.17 µg/mL
same,ED50 cytotoxic activity against Hep-G2 cells,[2],18.05 ± 0.58 µg/mL
same,ED50 cytotoxic activity against WiDr cells,[3],19.13 ± 0.56 µg/mL
"C=C[C@@](C)(O)[C@@H]1C[C@@H]2[C@@]3(C)CCC(=O)C(C)(C)[C@@H]3CC[C@@]2(C)O1 [Compound 9, Dysongensin C]",inhibition (in vitro inhibitory activity against the HSV-1 virus),HSV-1 (KOS strain),32.7±4.0%
"C=C[C@@](C)(O)[C@H]1C[C@@H]2[C@@]3(C)CCC(=O)C(C)(C)[C@@H]3CC[C@@]2(C)O1 [Compound 10, Dysongensin D]",inhibition at 10 µM,HSV-1 (KOS strain),25.2 ± 6%
"C=C[C@](C)(O)[C@H]1C[C@@H]2[C@@]3(C)CCC(=O)C(C)(C)[C@@H]3CC[C@@]2(C)O1 [Compound 11, Dysongensin E]",anti-inflammatory effect on elastase release,[4],31.29±6.67%
"C=C[C@](C)(O)[C@H]1C[C@@H]2[C@@]3(C)CC[C@H](O)C(C)(C)[C@@H]3CC[C@@]2(C)O1 [Compound 12, Dysongensin F]",ED50 cytotoxic activity against Hep-2 cells,[1],17.92 ± 0.25 µg/mL
"C=C[C@@](O)(CO)[C@H]1C[C@@H]2[C@@]3(C)CCC4C[C@@]4(C)[C@@H]3CC[C@@]2(C)O1 (stereo partly drawn) [Compound 13, Dysongensin G]",ED50 cytotoxic activity against Hep-G2 cells,[2],37.78 ± 0.81 µg/mL
same,inhibition (in vitro inhibitory activity against the HSV-1 virus),HSV-1 (KOS strain),29.3±9.0%
"C=C[C@](O)(CO)[C@@H]1C[C@@H]2[C@@]3(C)CCC4C[C@@]4(C)[C@@H]3CC[C@@]2(C)O1 (stereo partly drawn) [Compound 14, Dysongensin H]",ED50 cytotoxic activity against Hep-G2 cells,[2],16.86 ± 0.85 µg/mL
same,inhibition at 10 µM,HSV-1 (KOS strain),29.7 ± 6%
same,anti-inflammatory effect on superoxide anion generation,[5],25.33±4.04%
same,ED50 cytotoxic activity against WiDr cells,[3],15.45 ± 0.73 µg/mL
Dysongensin A [Compound 1],ED50 cytotoxic activity against Hep-G2 cells,[2],20.34 ± 0.58 µg/mL
same,ED50 cytotoxic activity against WiDr cells,[3],18.67 ± 0.56 µg/mL
